Earlier results in patent US7666442B2 (Tracie Martyn International, LLC, priority 2004, dated 2010).
Values belong to the molecule of their own block, whether it stands above or below them.

What was measured:
[1] = orally at dosages above 500 mg/kg body weight in animal studies
[2] = using only natural ingredients (botanicals, antioxidants, coffe oil and microfine zinc oxide)

SMILES: NCCC(=O)N[C@@H](Cc1cnc[nH]1)C(=O)O [Carnosine, beta-alanyl-L-histidine]
- Safety after oral administration [1]: safe

- Water solubility: water-soluble
SMILES: Cc1ncc(CO)c(CN)c1O [Pyridoxamine, 4-aminomethyl-5-hydroxy-6-methyl-3-pyridinemethanol]

SMILES: COc1ccc(C=CC(=O)OCCC(C)C)cc1 [isoamyl-p-methoxycinnamate]
- spf [2]: greater than 30
